Data as given in patent publication US9951028B2, “Agricultural chemicals” (REDAG CROP PROTECTION LTD, priority 2013, dated 2018).

Key:
Assay in all cases: Herbicidal efficacy screen, potter tower spray, necrosis assessed
Format in all cases: in vivo
[1] = system: garden cress, Lepidium sativum
Method: (§1) Compounds 22, 23 and 24 were screened for herbicidal efficacy against target plants: garden cress, Lepidium sativum, common chickweed, Stellaria media, and white mustard […] alba Plants were obtained as seeds and were grown to the 2-4 true leaf stage. Plants were grown under laboratory conditions, individually in seed trays. Each plant (in an approximately 3 cm diameter plug) was then detached from the tray for spraying. The compounds were screened at a range of five concentrations, diluted in acetone and TweenTM. A carrier only control was also conducted. Treatments were applied directly onto the plants, using a potter tower, at a specified application rate. One plant of each species was sprayed using a potter tower. The 3 different types of plants were placed on a 10 cm diameter platform directly beneath the potter sprayer and sprayed simultaneously. The growth of the plants and any Phytotoxicity effects were then assessed at intervals over 21 days, according to EPPO guideline PP1/135. Five replicas were performed for each treatment, for each species. In the tables below C represents a percentage increase in necrosis relative to the control of 0.1-50; B represents a percentage inhibition of 50-80; and A represents a percentage inhibition of 80-100.

[2] = system: white mustard Sinapsis alba
Method: as §1

[3] = system: common chickweed, Stellaria media
Method: as §1

[4] = 12.5 g/ha, day 1 post application
[5] = 12.5 g/ha, day 2 post application
[6] = 12.5 g/ha, day 3 post application
[7] = 12.5 g/ha, day 4 post application
[8] = 12.5 g/ha, day 5 post application
[9] = 12.5 g/ha, day 7 post application
[10] = 12.5 g/ha, day 10 post application
[11] = 25 g/ha, day 1 post application
[12] = 25 g/ha, day 2 post application
[13] = 25 g/ha, day 3 post application
[14] = 25 g/ha, day 4 post application
[15] = 25 g/ha, day 5 post application
[16] = 25 g/ha, day 7 post application
[17] = 25 g/ha, day 10 post application
[18] = 50 g/ha, day 1 post application
[19] = 50 g/ha, day 2 post application
[20] = 50 g/ha, day 3 post application
[21] = 50 g/ha, day 4 post application
[22] = 50 g/ha, day 5 post application
[23] = 50 g/ha, day 7 post application
[24] = 50 g/ha, day 10 post application
[25] = 100 g/ha, day 1 post application
[26] = 100 g/ha, day 2 post application
[27] = 100 g/ha, day 3 post application
[28] = 100 g/ha, day 4 post application
[29] = 100 g/ha, day 5 post application
[30] = 100 g/ha, day 7 post application
[31] = 100 g/ha, day 10 post application
[32] = 200 g/ha, day 1 post application
[33] = 200 g/ha, day 2 post application
[34] = 200 g/ha, day 3 post application
[35] = 200 g/ha, day 4 post application
[36] = 200 g/ha, day 5 post application
[37] = 200 g/ha, day 7 post application
[38] = 200 g/ha, day 10 post application

CC(C)N(C)S(=O)(=O)NCc1cc(-n2c(=O)cc(C(F)(F)F)n(C)c2=O)c(F)cc1Cl [Compound 23, 1-[4-Chloro-2-fluoro-5-[[(isopropyl(methyl)sulfamoyl)amino]methyl]phenyl]-3-methyl-2,6-dioxo-4-(trifluoromethyl)pyrimidine]
Average of necrosis [1, 4]: C (C represents a percentage increase in necrosis relative to the control of 0.1-50)
Average of necrosis [1, 5]: C (C represents a percentage increase in necrosis relative to the control of 0.1-50)
Average of necrosis [1, 6]: C (C represents a percentage increase in necrosis relative to the control of 0.1-50)
Average of necrosis [1, 7]: C (C represents a percentage increase in necrosis relative to the control of 0.1-50)
Average of necrosis [1, 8]: C (C represents a percentage increase in necrosis relative to the control of 0.1-50)
Average of necrosis [1, 9]: C (C represents a percentage increase in necrosis relative to the control of 0.1-50)
Average of necrosis [1, 10]: C (C represents a percentage increase in necrosis relative to the control of 0.1-50)
Average of necrosis [1, 11]: C (C represents a percentage increase in necrosis relative to the control of 0.1-50)
Average of necrosis [1, 12]: C (C represents a percentage increase in necrosis relative to the control of 0.1-50)
Average of necrosis [1, 13]: C (C represents a percentage increase in necrosis relative to the control of 0.1-50)
Average of necrosis [1, 14]: C (C represents a percentage increase in necrosis relative to the control of 0.1-50)
Average of necrosis [1, 15]: C (C represents a percentage increase in necrosis relative to the control of 0.1-50)
Average of necrosis [1, 16]: C (C represents a percentage increase in necrosis relative to the control of 0.1-50)
Average of necrosis [1, 17]: B (B represents a percentage inhibition of 50-80)
Average of necrosis [1, 18]: C (C represents a percentage increase in necrosis relative to the control of 0.1-50)
Average of necrosis [1, 19]: C (C represents a percentage increase in necrosis relative to the control of 0.1-50)
Average of necrosis [1, 20]: C (C represents a percentage increase in necrosis relative to the control of 0.1-50)
Average of necrosis [1, 21]: C (C represents a percentage increase in necrosis relative to the control of 0.1-50)
Average of necrosis [1, 22]: B (B represents a percentage inhibition of 50-80)
Average of necrosis [1, 23]: B (B represents a percentage inhibition of 50-80)
Average of necrosis [1, 24]: B (B represents a percentage inhibition of 50-80)
Average of necrosis [1, 25]: C (C represents a percentage increase in necrosis relative to the control of 0.1-50)
Average of necrosis [1, 26]: C (C represents a percentage increase in necrosis relative to the control of 0.1-50)
Average of necrosis [1, 27]: C (C represents a percentage increase in necrosis relative to the control of 0.1-50)
Average of necrosis [1, 28]: C (C represents a percentage increase in necrosis relative to the control of 0.1-50)
Average of necrosis [1, 29]: B (B represents a percentage inhibition of 50-80)
Average of necrosis [1, 30]: B (B represents a percentage inhibition of 50-80)
Average of necrosis [1, 31]: B (B represents a percentage inhibition of 50-80)
Average of necrosis [1, 32]: C (C represents a percentage increase in necrosis relative to the control of 0.1-50)
Average of necrosis [1, 33]: B (B represents a percentage inhibition of 50-80)
Average of necrosis [1, 34]: B (B represents a percentage inhibition of 50-80)
Average of necrosis [1, 35]: B (B represents a percentage inhibition of 50-80)
Average of necrosis [1, 36]: B (B represents a percentage inhibition of 50-80)
Average of necrosis [1, 37]: B (B represents a percentage inhibition of 50-80)
Average of necrosis [1, 38]: B (B represents a percentage inhibition of 50-80)
Average of necrosis [2, 4]: C (C represents a percentage increase in necrosis relative to the control of 0.1-50)
Average of necrosis [2, 5]: C (C represents a percentage increase in necrosis relative to the control of 0.1-50)
Average of necrosis [2, 6]: C (C represents a percentage increase in necrosis relative to the control of 0.1-50)
Average of necrosis [2, 7]: C (C represents a percentage increase in necrosis relative to the control of 0.1-50)
Average of necrosis [2, 8]: C (C represents a percentage increase in necrosis relative to the control of 0.1-50)
Average of necrosis [2, 9]: C (C represents a percentage increase in necrosis relative to the control of 0.1-50)
Average of necrosis [2, 10]: C (C represents a percentage increase in necrosis relative to the control of 0.1-50)
Average of necrosis [2, 11]: C (C represents a percentage increase in necrosis relative to the control of 0.1-50)
Average of necrosis [2, 12]: C (C represents a percentage increase in necrosis relative to the control of 0.1-50)
Average of necrosis [2, 13]: C (C represents a percentage increase in necrosis relative to the control of 0.1-50)
Average of necrosis [2, 14]: C (C represents a percentage increase in necrosis relative to the control of 0.1-50)
Average of necrosis [2, 15]: C (C represents a percentage increase in necrosis relative to the control of 0.1-50)
Average of necrosis [2, 16]: C (C represents a percentage increase in necrosis relative to the control of 0.1-50)
Average of necrosis [2, 17]: C (C represents a percentage increase in necrosis relative to the control of 0.1-50)
Average of necrosis [2, 18]: C (C represents a percentage increase in necrosis relative to the control of 0.1-50)
Average of necrosis [2, 19]: C (C represents a percentage increase in necrosis relative to the control of 0.1-50)
Average of necrosis [2, 20]: C (C represents a percentage increase in necrosis relative to the control of 0.1-50)
Average of necrosis [2, 21]: C (C represents a percentage increase in necrosis relative to the control of 0.1-50)
Average of necrosis [2, 22]: C (C represents a percentage increase in necrosis relative to the control of 0.1-50)
Average of necrosis [2, 23]: C (C represents a percentage increase in necrosis relative to the control of 0.1-50)
Average of necrosis [2, 24]: C (C represents a percentage increase in necrosis relative to the control of 0.1-50)
Average of necrosis [2, 25]: C (C represents a percentage increase in necrosis relative to the control of 0.1-50)
Average of necrosis [2, 26]: C (C represents a percentage increase in necrosis relative to the control of 0.1-50)
Average of necrosis [2, 27]: C (C represents a percentage increase in necrosis relative to the control of 0.1-50)
Average of necrosis [2, 28]: C (C represents a percentage increase in necrosis relative to the control of 0.1-50)
Average of necrosis [2, 29]: C (C represents a percentage increase in necrosis relative to the control of 0.1-50)
Average of necrosis [2, 30]: C (C represents a percentage increase in necrosis relative to the control of 0.1-50)
Average of necrosis [2, 31]: C (C represents a percentage increase in necrosis relative to the control of 0.1-50)
Average of necrosis [2, 32]: C (C represents a percentage increase in necrosis relative to the control of 0.1-50)
Average of necrosis [2, 33]: C (C represents a percentage increase in necrosis relative to the control of 0.1-50)
Average of necrosis [2, 34]: C (C represents a percentage increase in necrosis relative to the control of 0.1-50)
Average of necrosis [2, 35]: C (C represents a percentage increase in necrosis relative to the control of 0.1-50)
Average of necrosis [2, 36]: C (C represents a percentage increase in necrosis relative to the control of 0.1-50)
Average of necrosis [2, 37]: C (C represents a percentage increase in necrosis relative to the control of 0.1-50)
Average of necrosis [2, 38]: C (C represents a percentage increase in necrosis relative to the control of 0.1-50)
Average of necrosis [3, 4]: C (C represents a percentage increase in necrosis relative to the control of 0.1-50)
Average of necrosis [3, 5]: C (C represents a percentage increase in necrosis relative to the control of 0.1-50)
Average of necrosis [3, 6]: C (C represents a percentage increase in necrosis relative to the control of 0.1-50)
Average of necrosis [3, 7]: C (C represents a percentage increase in necrosis relative to the control of 0.1-50)
Average of necrosis [3, 8]: B (B represents a percentage inhibition of 50-80)
Average of necrosis [3, 9]: B (B represents a percentage inhibition of 50-80)
Average of necrosis [3, 10]: A (A represents a percentage inhibition of 80-100)
Average of necrosis [3, 11]: C (C represents a percentage increase in necrosis relative to the control of 0.1-50)
Average of necrosis [3, 12]: C (C represents a percentage increase in necrosis relative to the control of 0.1-50)
Average of necrosis [3, 13]: C (C represents a percentage increase in necrosis relative to the control of 0.1-50)
Average of necrosis [3, 14]: C (C represents a percentage increase in necrosis relative to the control of 0.1-50)
Average of necrosis [3, 15]: B (B represents a percentage inhibition of 50-80)
Average of necrosis [3, 16]: B (B represents a percentage inhibition of 50-80)
Average of necrosis [3, 17]: B (B represents a percentage inhibition of 50-80)
Average of necrosis [3, 18]: C (C represents a percentage increase in necrosis relative to the control of 0.1-50)
Average of necrosis [3, 19]: C (C represents a percentage increase in necrosis relative to the control of 0.1-50)
Average of necrosis [3, 20]: C (C represents a percentage increase in necrosis relative to the control of 0.1-50)
Average of necrosis [3, 21]: C (C represents a percentage increase in necrosis relative to the control of 0.1-50)
Average of necrosis [3, 22]: B (B represents a percentage inhibition of 50-80)
Average of necrosis [3, 23]: B (B represents a percentage inhibition of 50-80)
Average of necrosis [3, 24]: B (B represents a percentage inhibition of 50-80)
Average of necrosis [3, 25]: C (C represents a percentage increase in necrosis relative to the control of 0.1-50)
Average of necrosis [3, 26]: C (C represents a percentage increase in necrosis relative to the control of 0.1-50)
Average of necrosis [3, 27]: C (C represents a percentage increase in necrosis relative to the control of 0.1-50)
Average of necrosis [3, 28]: C (C represents a percentage increase in necrosis relative to the control of 0.1-50)
Average of necrosis [3, 29]: B (B represents a percentage inhibition of 50-80)
Average of necrosis [3, 30]: B (B represents a percentage inhibition of 50-80)
Average of necrosis [3, 31]: A (A represents a percentage inhibition of 80-100)
Average of necrosis [3, 32]: C (C represents a percentage increase in necrosis relative to the control of 0.1-50)
Average of necrosis [3, 33]: C (C represents a percentage increase in necrosis relative to the control of 0.1-50)
Average of necrosis [3, 34]: C (C represents a percentage increase in necrosis relative to the control of 0.1-50)
Average of necrosis [3, 35]: C (C represents a percentage increase in necrosis relative to the control of 0.1-50)
Average of necrosis [3, 36]: B (B represents a percentage inhibition of 50-80)
Average of necrosis [3, 37]: B (B represents a percentage inhibition of 50-80)
Average of necrosis [3, 38]: B (B represents a percentage inhibition of 50-80)
